By Ki is commonly meant a measure of affinity in units of concentration, obtained from inhibition or displacement.

The assay has as its target T1, Tyrosine-protein phosphatase non-receptor type 1 (Homo sapiens, UniProt P18031).
T1 sequence (P18031 whole entry): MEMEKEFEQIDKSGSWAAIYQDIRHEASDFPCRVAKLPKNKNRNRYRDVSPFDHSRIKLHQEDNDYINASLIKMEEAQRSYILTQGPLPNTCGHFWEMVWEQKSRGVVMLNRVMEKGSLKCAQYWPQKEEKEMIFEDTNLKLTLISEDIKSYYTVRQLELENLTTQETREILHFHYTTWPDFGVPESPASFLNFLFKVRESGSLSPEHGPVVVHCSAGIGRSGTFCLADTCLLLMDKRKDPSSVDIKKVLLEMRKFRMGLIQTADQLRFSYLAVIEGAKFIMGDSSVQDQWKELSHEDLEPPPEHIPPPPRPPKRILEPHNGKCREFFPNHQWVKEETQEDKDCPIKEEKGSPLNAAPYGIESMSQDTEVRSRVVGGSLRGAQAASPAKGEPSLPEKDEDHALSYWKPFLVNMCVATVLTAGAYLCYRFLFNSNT
The assay can be described thus: Inhibition of human recombinant PTP1B.
In the case of `O=C(O)COc1c(C(=O)O)sc(-c2cccc(NCC3CCN(C(=O)Nc4ccccc4)CC3)c2)c1Br`, the Ki turned out to be 7 nM.

Regarding `O=C(O)COc1c(C(=O)O)sc(-c2cccc(OCC3CCN(C(=O)Nc4ccccc4)CC3)c2)c1Br`, the Ki came to 13 nM.

Take `O=C(O)COc1c(C(=O)O)sc(-c2cccc(NC3CCN(S(=O)(=O)Cc4ccc(Cl)cc4)CC3)c2)c1Br`: the Ki came out at 38 nM.

Consider `O=C(O)COc1c(C(=O)O)sc(-c2cccc(NC3CCN(S(=O)(=O)Cc4ccccc4Cl)CC3)c2)c1Br`, for which the Ki came to 5 nM.

Regarding `O=C(O)COc1c(C(=O)O)sc(-c2cccc(NC3CCN(S(=O)(=O)Cc4ccccc4C(F)(F)F)CC3)c2)c1Br`, the Ki amounted to 6 nM.

Take `Cc1cccc(C)c1CS(=O)(=O)N1CCC(Nc2cccc(-c3sc(C(=O)O)c(OCC(=O)O)c3Br)c2)CC1`: the inhibition constant (Ki) was found to be 6 nM.

For `COc1ccccc1NC(=O)N1CCC(CNc2cccc(-c3sc(C(=O)O)c(OCC(=O)O)c3Br)c2)CC1`, the Ki came out at 3 nM.

As to `Cc1cccc(C)c1NC(=O)N1CCC(CNc2cccc(-c3sc(C(=O)O)c(OCC(=O)O)c3Br)c2)CC1`, the Ki worked out at 3 nM.

With `Nc1cccc(-c2sc(C(=O)O)c(OCC(=O)O)c2Br)c1`, the Ki amounted to 1700 nM.

Consider `O=C(O)COc1c(C(=O)O)sc(-c2cccc(NCC3CCCCC3)c2)c1Br`, for which the Ki turned out to be 200 nM.

For `O=C(O)COc1c(C(=O)O)sc(-c2cccc(NC3CCCCCC3)c2)c1Br`, the Ki was determined as 120 nM.

With `O=C(O)COc1c(C(=O)O)sc(-c2cccc(NC3CCNCC3)c2)c1Br`, the inhibitory constant (Ki) turned out to be 3800 nM.

Regarding `COC(=O)N1CCC(Nc2cccc(-c3sc(C(=O)O)c(OCC(=O)O)c3Br)c2)CC1`, the inhibition constant Ki worked out at 390 nM.

Turning to `CS(=O)(=O)N1CCC(Nc2cccc(-c3sc(C(=O)O)c(OCC(=O)O)c3Br)c2)CC1`, the inhibition constant Ki came to 44 nM.

In the case of `O=C(O)COc1c(C(=O)O)sc(-c2cccc(NC3CCN(S(=O)(=O)c4ccccc4)CC3)c2)c1Br`, the Ki is 55 nM.

In the case of `Cc1c(-c2cccc(NC3CCN(S(=O)(=O)Cc4ccccc4)CC3)c2)sc(C(=O)O)c1OCC(=O)O`, the Ki is 8 nM.

On to `O=C(O)COc1c(C(=O)O)sc(-c2cccc(NC3CCN(S(=O)(=O)Cc4ccccc4)CC3)c2)c1Cl`, for which the Ki worked out at 0.68 nM.

Turning to `O=C(O)COc1c(C(=O)O)sc(-c2cccc(OC3CCN(S(=O)(=O)Cc4ccccc4)CC3)c2)c1Br`, the inhibitory constant (Ki) was 24 nM.

As for `O=C(O)COc1c(C(=O)O)sc(-c2cccc(NCC3CCN(C(=O)Nc4ccccc4Cl)CC3)c2)c1Br`, the Ki was 4 nM.

For `O=C(O)COc1cc(-c2cccc(NC3CCN(S(=O)(=O)Cc4ccccc4)CC3)c2)sc1C(=O)O`, the inhibitory constant (Ki) was found to be 2000 nM.

Consider `O=C(O)COc1c(C(=O)O)sc(-c2cccc(NCC3CCN(S(=O)(=O)Cc4ccccc4)CC3)c2)c1Br`, for which the inhibition constant Ki is 74 nM.

Regarding `O=C(O)COc1c(C(=O)O)sc(-c2cccc(NC3CCN(S(=O)(=O)Cc4cccc(Cl)c4)CC3)c2)c1Br`, the Ki was determined as 10 nM.

As for `Cc1ccccc1CS(=O)(=O)N1CCC(Nc2cccc(-c3sc(C(=O)O)c(OCC(=O)O)c3Br)c2)CC1`, the Ki turned out to be 4 nM.

As to `O=C(O)COc1c(C(=O)O)sc(-c2cccc(NC3CCCC3)c2)c1Br`, the Ki is 390 nM.

In the case of `O=C(O)COc1c(C(=O)O)sc(-c2cccc(NC3CCOCC3)c2)c1Br`, the Ki is 310 nM.

Consider `CS(=O)(=O)Nc1ccccc1CS(=O)(=O)N1CCC(Nc2cccc(-c3sc(C(=O)O)c(OCC(=O)O)c3Br)c2)CC1`, for which the inhibition constant (Ki) came out at 1 nM.

Regarding `CC(=O)N1CCC(Nc2cccc(-c3sc(C(=O)O)c(OCC(=O)O)c3Br)c2)CC1`, the Ki turned out to be 190 nM.

Consider `O=C(O)COc1c(C(=O)O)sc(-c2cccc(NC3CCN(C(=O)NCc4ccccc4)CC3)c2)c1Br`, for which the Ki came to 300 nM.

Turning to `Cc1ccccc1NC(=O)N1CCC(CNc2cccc(-c3sc(C(=O)O)c(OCC(=O)O)c3Br)c2)CC1`, the inhibitory constant (Ki) amounted to 3 nM.

Turning to `CCNC(=O)Nc1ccccc1CS(=O)(=O)N1CCC(Nc2cccc(-c3sc(C(=O)O)c(OCC(=O)O)c3Br)c2)CC1`, the inhibitory constant (Ki) turned out to be 14 nM.

As to `O=C(O)COc1c(C(=O)O)sc(-c2cccc(NCC3CCN(S(=O)(=O)c4ccccc4)CC3)c2)c1Br`, the Ki is 310 nM.
